Laboratory results published in ChEMBL document CHEMBL1123679, “5-Quinone derivatives of 2'-deoxyuridine 5'-phosphate: inhibition and inactivation of thymidylate synthase, antitumor cell, and antiviral studies” (J Med Chem, 1987).
≈ marks a conversion by molar mass, not a printed value.

Tests used:
[1] = target: T1, Thymidylate synthase (Lactobacillus casei, UniProt P00469); assay: Ability to inhibit the thymidylate synthase from Lactobacillus casei was determined and expressed as inhibition constant(Ki); set-up: species or system Lacticaseibacillus casei
T1 sequence (P00469 whole entry): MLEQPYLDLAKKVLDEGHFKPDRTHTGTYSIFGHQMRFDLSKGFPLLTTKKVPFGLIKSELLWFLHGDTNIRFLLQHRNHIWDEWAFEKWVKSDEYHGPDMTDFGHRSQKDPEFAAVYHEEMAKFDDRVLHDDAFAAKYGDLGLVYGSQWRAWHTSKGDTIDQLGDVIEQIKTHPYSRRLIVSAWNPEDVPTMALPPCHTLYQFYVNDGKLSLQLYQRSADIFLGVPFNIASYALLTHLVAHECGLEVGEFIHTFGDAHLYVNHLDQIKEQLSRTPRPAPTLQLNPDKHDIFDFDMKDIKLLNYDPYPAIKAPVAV

[2] = test system: Raji; assay: Inhibition of human B-cell lymphoblast Raji cell proliferation; type: functional; settings: read-out: ID50 (the source's name)
[3] = test system: L1210; assay: Ability to inhibit the proliferation or tumor cell growth by 50% of the murine leukemia L1210 cells was determined; type: functional; settings: Mus musculus, read-out: ID50 (the source's name)
[4] = species: Oryctolagus cuniculus; assay: Minimal inhibitory concentration required to cause a microscopically detectable alteration of normal cell morphology of rabbit kidney cell cultures; type: functional
[5] = species: Oryctolagus cuniculus; assay: Minimal inhibitory concentration against HSV-2 (G)-induced cytopathogenicity by 50% in rabbit kidney cell cultures; type: functional
[6] = species: Oryctolagus cuniculus; assay: Minimal inhibitory concentration against HSV-2 (Lyons)-induced cytopathogenicity by 50% in rabbit kidney cell cultures; type: functional
[7] = species: Oryctolagus cuniculus; assay: Minimal inhibitory concentration against vaccinia virus-induced cytopathogenicity by 50% in rabbit kidney cell cultures; type: functional
[8] = species: Oryctolagus cuniculus; assay: Minimal inhibitory concentration against vesicular stomatitis virus-induced cytopathogenicity by 50% in rabbit kidney cell cultures; type: functional
[9] = species: Oryctolagus cuniculus; assay: Minimal inhibitory concentration against HSV-1 (F)-induced cytopathogenicity by 50% in rabbit kidney cell cultures; type: functional
[10] = species: Oryctolagus cuniculus; assay: Minimal inhibitory concentration against HSV-1 (KOS)-induced cytopathogenicity by 50% in rabbit kidney cell cultures; type: functional
[11] = species: Oryctolagus cuniculus; assay: Minimal inhibitory concentration against HSV-1 (McIntyre)-induced cytopathogenicity by 50% in rabbit kidney cell cultures; type: functional
[12] = species: Oryctolagus cuniculus; assay: Minimal inhibitory concentration against HSV-2 (196)-induced cytopathogenicity by 50% in rabbit kidney cell cultures; type: functional
[13] = Ability to inhibit the proliferation or tumor cell growth by 50% of the human T-cell lymphoblast (Molt/4F) cells was determined; type: functional; settings: read-out: ID50 (the source's name)
[14] = species: Oryctolagus cuniculus; assay: Minimal inhibitory concentration required to cause a microscopically detectable alteration of normal cell morphology of rabbit kidney cell culture; type: functional
[15] = target: Thymidylate synthase (Mus musculus, UniProt P07607); assay: Ability to inhibit the thymidylate synthase from murine leukemia L1210 cells was determined and expressed as inhibition constant(Ki); type: cell-based
Chain of Thymidylate synthase (Mus musculus, UniProt P07607) (P07607 whole entry): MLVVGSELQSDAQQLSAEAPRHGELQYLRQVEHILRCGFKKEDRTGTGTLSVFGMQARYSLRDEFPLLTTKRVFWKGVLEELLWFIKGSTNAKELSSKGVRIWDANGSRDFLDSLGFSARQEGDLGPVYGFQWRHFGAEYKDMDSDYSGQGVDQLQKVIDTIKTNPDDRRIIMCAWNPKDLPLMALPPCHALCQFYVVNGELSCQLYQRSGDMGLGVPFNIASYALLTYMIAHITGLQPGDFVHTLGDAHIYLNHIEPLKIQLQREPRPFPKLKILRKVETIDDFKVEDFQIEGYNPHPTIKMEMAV

[16] = test system: Raji; assay: Inhibition of human B-cell lymphoblast Raji cell proliferation; Value ranges from (10-55.6); type: functional; settings: read-out: ID50 (the source's name)
[17] = target: T1, Thymidylate synthase; assay: Ability to inhibit the thymidylate synthase from Lactobacillus casei was determined and expressed as inhibition constant (Ki); set-up: species or system Lacticaseibacillus casei

| SMILES | Ki [1] | IC50 [2] | IC50 [3] | MIC [5] | MIC [6] | MIC [7] | MIC [8] | MIC [9] | MIC [10] | MIC [11] | MIC [12] | IC50 [13] | other results |
| --- | --- | --- | --- | --- | --- | --- | --- | --- | --- | --- | --- | --- | --- |
| O=C1C=CC(=O)C(c2cn([C@H]3C[C@H](O)[C@@H](COP(=O)(O)O)O3)c(=O)[nH]c2=O)=C1 | 2 µM | – | – | – | – | – | – | – | – | – | – | – | – |
| CC1=C(C)C(=O)C(c2cn([C@H]3C[C@H](O)[C@@H](CO)O3)c(=O)[nH]c2=O)=CC1=O | – | > 100 µg/mL | 40.5 µg/mL (≈ 112 µM) | > 100 µg/mL | 70 µg/mL (≈ 193 µM) | > 100 µg/mL | > 100 µg/mL | > 100 µg/mL | 150 µg/mL (≈ 414 µM) | 70 µg/mL (≈ 193 µM) | 70 µg/mL (≈ 193 µM) | 66.8 µg/mL (≈ 184 µM) | MIC [4]: 200 µg/mL (≈ 552 µM) |
| COc1c(C)c(C)c(OC)c(-c2cn([C@H]3C[C@H](O)[C@@H](CO)O3)c(=O)[nH]c2=O)c1C | – | > 100 µg/mL | > 100 µg/mL | – | – | – | – | – | – | – | – | > 100 µg/mL | – |
| COc1c(C)c(-c2cn([C@H]3C[C@H](O)[C@@H](COP(=O)(O)O)O3)c(=O)[nH]c2=O)c(OC)c2ccccc12 | 2.4 µM | – | – | – | – | – | – | – | – | – | – | – | – |
| CC1=C(C)C(=O)C(c2cn([C@H]3C[C@H](O)[C@@H](CO)O3)c(=O)[nH]c2=O)=C(C)C1=O | – | 51.1 µg/mL (≈ 136 µM) | 65.6 µg/mL (≈ 174 µM) | > 200 µg/mL | > 200 µg/mL | > 200 µg/mL | > 100 µg/mL | > 200 µg/mL | > 200 µg/mL | > 200 µg/mL | > 200 µg/mL | 29.7 µg/mL (≈ 78.9 µM) | MIC [4]: > 200 µg/mL |
| O=c1[nH]c(=O)n([C@H]2C[C@H](O)[C@@H](CO)O2)cc1I [IDOXURIDINE] | – | – | – | 0.7 µg/mL (≈ 1.98 µM) | 0.7 µg/mL (≈ 1.98 µM) | 0.7 µg/mL (≈ 1.98 µM) | > 400 µg/mL | 0.7 µg/mL (≈ 1.98 µM) | 0.2 µg/mL (≈ 0.565 µM) | 0.7 µg/mL (≈ 1.98 µM) | 1 µg/mL (≈ 2.82 µM) | – | MIC [14]: > 400 µg/mL |
| O=C1C=CC(=O)C(c2cn([C@H]3C[C@H](O)[C@@H](CO)O3)c(=O)[nH]c2=O)=C1 | – | > 100 µg/mL | 35.7 µg/mL (≈ 107 µM) | 70 µg/mL (≈ 209 µM) | 70 µg/mL (≈ 209 µM) | 70 µg/mL (≈ 209 µM) | > 200 µg/mL | 20 µg/mL (≈ 59.8 µM) | 20 µg/mL (≈ 59.8 µM) | 150 µg/mL (≈ 449 µM) | 70 µg/mL (≈ 209 µM) | > 100 µg/mL | – |
| CC1=C(c2cn([C@H]3C[C@H](O)[C@@H](CO)O3)c(=O)[nH]c2=O)C(=O)c2ccccc2C1=O | – | 33.5 µg/mL (≈ 84.1 µM) | 27.4 µg/mL (≈ 68.8 µM) | > 10 µg/mL | > 10 µg/mL | > 10 µg/mL | > 10 µg/mL | > 10 µg/mL | > 10 µg/mL | > 10 µg/mL | > 10 µg/mL | 30.9 µg/mL (≈ 77.6 µM) | MIC [4]: 40 µg/mL (≈ 100 µM) |
| CC1=C(c2cn([C@H]3C[C@H](O)[C@@H](COP(=O)(O)O)O3)c(=O)[nH]c2=O)C(=O)c2ccccc2C1=O | 0.61 µM | – | – | – | – | – | – | – | – | – | – | – | Ki [15]: 1.9 µM |
| COc1c(C)c(-c2cn([C@H]3C[C@H](O)[C@@H](CO)O3)c(=O)[nH]c2=O)c(OC)c2ccccc12 | – | – | > 100 µg/mL | – | – | – | – | – | – | – | – | > 100 µg/mL | IC50 [16]: 55.6 µg/mL (≈ 130 µM) |
| COc1cc(-c2cn([C@H]3C[C@H](O)[C@@H](COP(=O)(O)O)O3)c(=O)[nH]c2=O)c(OC)c(C)c1C | – | – | – | – | – | – | – | – | – | – | – | – | Ki [17]: 3.6 µM |
| COc1c(C)c(C)c(OC)c(-c2cn([C@H]3C[C@H](O)[C@@H](COP(=O)(O)O)O3)c(=O)[nH]c2=O)c1C | 1.4 µM | – | – | – | – | – | – | – | – | – | – | – | – |
| CC1=C(C)C(=O)C(c2cn([C@H]3C[C@H](O)[C@@H](COP(=O)(O)O)O3)c(=O)[nH]c2=O)=C(C)C1=O | 1.3 µM | – | – | – | – | – | – | – | – | – | – | – | Ki [15]: 5.1 µM |
| O=c1[nH]c(=O)n([C@H]2C[C@H](O)[C@@H](CO)O2)cc1[N+](=O)[O-] | – | – | 0.003 µg/mL (≈ 0.011 µM) | – | – | – | – | – | – | – | – | – | – |
| COc1cc(-c2cn([C@H]3C[C@H](O)[C@@H](CO)O3)c(=O)[nH]c2=O)c(OC)c(C)c1C | – | > 100 µg/mL | > 100 µg/mL | – | – | – | – | – | – | – | – | > 100 µg/mL | – |
| O=c1[nH]c(=O)n([C@H]2C[C@H](O)[C@@H](CO)O2)cc1Br [BROXURIDINE] | – | – | – | 2 µg/mL (≈ 6.51 µM) | 20 µg/mL (≈ 65.1 µM) | 7 µg/mL (≈ 22.8 µM) | > 400 µg/mL | 0.07 µg/mL (≈ 0.228 µM) | 0.02 µg/mL (≈ 0.0651 µM) | 0.02 µg/mL (≈ 0.0651 µM) | 10 µg/mL (≈ 32.6 µM) | – | MIC [4]: > 400 µg/mL |
| CC1=C(C)C(=O)C(c2cn([C@H]3C[C@H](O)[C@@H](COP(=O)(O)O)O3)c(=O)[nH]c2=O)=CC1=O | 0.59 µM | – | – | – | – | – | – | – | – | – | – | – | Ki [15]: 6.1 µM |
